By EC50 is commonly meant the concentration that produces a half-maximal response.

The values that follow come from patent US20240424112A1, “TETRAHYDROISOQUINOLINE COMPOUNDS THAT ARE KEAP1 BINDERS” (C4X Discovery Limited, priority 2021, published 2024).

One assay has as its target T1, BRD4 long isoform (Homo sapiens, UniProt O60885).
T1 construct: endogenous in cells; host or cells: MDA-MB-468
The assay can be described thus: BRD4 degradation assay (Western blot, MDA-MB-468 cells), long isoform. It counts as cell-based. The conditions noted are these: MDA-MB-468, n = 2. As for the experimental part: (§1) BRD4 Degradation Assay Protocol Summary
(§2) MDA-MB-468 cells were cultured routinely in DMEM supplemented with 10% heat inactivated FBS and 1% Penicillin-Streptomycin (Thermofisher Scientific) at 37° C. 5% CO2. Cells were seeded in 6-well plates at 4*10^5 cells per well and left to adhere overnight. Example compounds were solubilised in DMSO to make 10 mM stocks followed by serial dilutions in DMSO to 200× final concentration. These were further diluted in culture media to give 20× treatment stocks before addition to cells to a 1× final concentration. Cells were then incubated at 37° C. 5% CO2 for 24 or 48 hours after which cells were lysed in RIPA buffer supplemented with cOmplete Mini Protease Inhibitor Cocktail and PhosSTOP™ (Roche). Lysates were clarified by centrifugation at 13,000 RPM for 10 minutes and the protein concentration of the resulting supernatants determined by BCA assay (ThermoFisher Scientific) as per manufacturer's instructions. Lysates were denatured and reduced in NuPAGE LDS sample buffer and sample reducing agent before 10 μg was loaded onto NuPAGE […] Tris-Acetate Mini Protein Gels (ThermoFisher Scientific). Protein was transferred to nitrocellulose membranes using a Trans-Blot Turbo Transfer System (Bio-Rad) before blocking for 1 hour in Intercept (TBS) Blocking Buffer (Li-Cor). Membranes were then incubated overnight with BRD4 (ab128874; Abcam) and α-tubulin (T6074; Sigma-Aldrich) antibodies diluted 1:2000 and 1:16,000 respectively in Tris-buffered saline 0.05% Tween 20 (TBS-T). The following day, membranes were washed with TBS-T before addition of anti-rabbit IRDye 800 CW and anti-mouse IRDye 680LT secondary antibodies (LiCor) (diluted 1:10,000 in TBS-T) for one hour. Membranes were then washed with TBS-T before imaging using a LICOR Odyssey Infrared Imaging System with Image Studio Ver 5.2 software (LiCor). Densitometry analysis was carried out in the LiCor image studio software where BRD4 signal was normalised to α-tubulin signal. Percentage degradation of BRD4 relative to the DMSO treated negative control was calculated as: =100−(signal of interest/signal of control sample*100). BRD4 degradation by dBET1 was used as positive control for each plate. Data obtained for the percentage degradation of BRD4 upon treatment with the Example compounds 1-6 and Comparative Example compounds 1-3 at 24 hour incubation are shown in Table 2 and with 48 hour incubation are shown in Table 3.

The next assay has as its target T2, BRD4 short isoform (Homo sapiens, UniProt O60885).
T2 construct: endogenous in cells; host or cells: MDA-MB-468
The assay can be described thus: BRD4 degradation assay (Western blot, MDA-MB-468 cells), short isoform. It counts as cell-based. The note with it: MDA-MB-468, n = 2. On the procedure: as §1, §2
In general terms: Immunoblotting shows a protein as a band on a membrane.

Assay [1] deals with NRF2 mediated gene NAD(P)H:quinone acceptor oxidoreductase 1 (NQO1) mRNA in BEAS-2B cells. The assay can be described thus: Beas2B NQO1 mRNA cell based assay. The conditions noted are these: Homo sapiens, 24 h, vs vehicle (0.1% DMSO), read-out: EC50 (increase in NQO1 mRNA). On the procedure:
Beas2B NQO1 mRNA Cell Based Assay
The up-regulation of the NRF2 mediated gene NAD(P)H:quinone acceptor oxidoreductase 1 (NQO1) was measured using the following assay method: BEAS-2B cells (ATCC CRL-9609) were plated in 96-well clear plates at 20,000 cells/well in 75 μL of cell culture media and incubated overnight (37° C., 5% CO2). On day 2, 25 μL of compound or controls were added to the cells for 24 h. On day 3, the medium was aspirated from the plate and the Cells-to-CT™ 1-Step TaqMan® Kit (Ambion A25603) was used to perform expression analysis directly from cultured cells without RNA purification according to the manufacturer's instructions.
Briefly, cells were washed with ice cold PBS and 22.5 μL of room-temperature DNase/Lysis solution was added to the cells and incubated at room temperature for 5 minutes. To stop the reaction, 2.25 μL of stop solution was added to the cell lysate. The samples were diluted 1:5 using nuclease free water and 2.5 μL transferred into the PCR plate. Real-time PCR was performed using the C-1000 Thermal Cycler (Bio-Rad) using human beta actin as the internal control. The cDNA was amplified with a specific primer for NQO1 using the 1-step RT-PCR master mix (Ambion Cells-to-CT™ 1-Step TaqMan® Kit A25603). The primers/probes sets that were used for amplification of cDNA were obtained from TaqMan Gene Expression Assays (Applied Biosystems). The comparative CT (ΔΔCT) relative quantification method was used to calculate the relative mRNA level of the target gene NQO1 as described in the Applied Biosystems Chemistry Guide. The data are expressed as an increase in target gene mRNA compared to vehicle (0.1% DMSO) control and the EC50 values were determined by fitting the data to a four parameter logistic fit using XLfit or XE Runner within ActivityBase.

For the compound `Cc1sc2c(c1C)C(c1ccc(Cl)cc1)=N[C@@H](CC(=O)NCC(=O)NCCNC(=O)[C@@]1(C)CCCC[C@H]1C(=O)N1CCc3c(Cl)ccc(OCc4nnn(C)c4C)c3[C@H]1CN1CC3(CC3)CC1=O)c1nnc(C)n1-2` [Comparative Example 1, (1S,2R)-2-((S)-5-Chloro-8-((1,5-dimethyl-1H-1,2,3-triazol-4-yl)methoxy)-1-((6-oxo-5-azaspiro[2.4]heptan-5-yl)methyl)-1,2,3,4-tetrahydroisoquinoline-2-carbonyl)-N-(2-(2-(2-((S)-4-(4-chlorophenyl)-2,3,9-trimethyl-6H-thieno[3,2-f][1,2,4]triazolo[4,3-a][1,4]diazepin-6-yl)acetamido)acetamido)ethyl)-1-methylcyclohexane-1-carboxamide, reference compound], the “% Mean Degradation of BRD4” value was 11% on BRD4 long isoform (24 h, 0.1 μM); 18% at BRD4 long isoform (24 h, 1 μM); 5% on BRD4 long isoform (24 h, 5 μM); −39% at BRD4 long isoform (48 h, 0.1 μM); −27% at BRD4 long isoform (48 h, 1 μM); −47% on BRD4 long isoform (48 h, 5 μM). The “% Mean Degradation of BRD4” value on BRD4 short isoform (24 h, 0.1 μM) was 18%; on BRD4 short isoform (24 h, 1 μM), 42%; on BRD4 short isoform (24 h, 5 μM) it was 43%; on BRD4 short isoform (48 h, 0.1 μM), −11%; on BRD4 short isoform (48 h, 1 μM) it was 24%; at BRD4 short isoform (48 h, 5 μM), 28%. Also, the EC50 in assay [1] worked out at 212 nM.
As for `Cc1sc2c(c1C)C(c1ccc(Cl)cc1)=N[C@@H](CC(=O)NCC(=O)NCCOCc1c(COc3ccc(Cl)c4c3[C@@H](CN3CC5(CC5)CC3=O)N(C(=O)[C@@H]3CCCC[C@]3(C)C(=O)O)CC4)nnn1C)c1nnc(C)n1-2` [Example 3, (1S,2R)-2-((S)-5-Chloro-8-((5-((2-(2-(2-((S)-4-(4-chlorophenyl)-2,3,9-trimethyl-6H-thieno[3,2-f][1,2,4]triazolo[4,3-a][1,4]diazepin-6-yl)acetamido)acetamido)ethoxy)methyl)-1-methyl-1H-1,2,3-triazol-4-yl)methoxy)-1-((6-oxo-5-azaspiro[2.4]heptan-5-yl)methyl)-1,2,3,4-tetrahydroisoquinoline-2-carbonyl)-1-methylcyclohexane-1-carboxylic acid], the “% Mean Degradation of BRD4” value on BRD4 long isoform (24 h, 0.1 μM) stood at 23%; on BRD4 long isoform (24 h, 1 μM) it was 80%; at BRD4 long isoform (24 h, 5 μM), 75%; on BRD4 long isoform (48 h, 0.1 μM), 14%; on BRD4 long isoform (48 h, 1 μM), 67%; on BRD4 long isoform (48 h, 5 μM), 60%. Further, the “% Mean Degradation of BRD4” value at BRD4 short isoform (24 h, 0.1 μM) is reported as 31%; on BRD4 short isoform (24 h, 1 μM), 87%; at BRD4 short isoform (24 h, 5 μM), 87%; on BRD4 short isoform (48 h, 0.1 μM) it was 25%; at BRD4 short isoform (48 h, 1 μM), 77%; at BRD4 short isoform (48 h, 5 μM) it was 79%. Also, the EC50 in assay [1] worked out at 280 nM.
Consider `Cc1sc2c(c1C)C(c1ccc(Cl)cc1)=N[C@@H](CC(=O)NCC(=O)NCCOCC(=O)N1CC[C@H](Oc3ccc(Cl)c4c3[C@@H](CN3CC5(CC5)CC3=O)N(C(=O)[C@@H]3CCCC[C@]3(C)C(=O)O)CC4)C1)c1nnc(C)n1-2` [Example 6, (1S,2R)-2-((S)-5-Chloro-8-(((S)-1-(2-(2-(2-(2-((S)-4-(4-chlorophenyl)-2,3,9-trimethyl-6H-thieno[3,2-f][1,2,4]triazolo[4,3-a][1,4]diazepin-6-yl)acetamido)acetamido)ethoxy)acetyl)pyrrolidin-3-yl)oxy)-1-((6-oxo-5-azaspiro[2.4]heptan-5-yl)methyl)-1,2,3,4-tetrahydroisoquinoline-2-carbonyl)-1-methylcyclohexane-1-carboxylic acid], for which the “% Mean Degradation of BRD4” value is recorded as 9% at BRD4 long isoform (24 h, 0.1 μM); 52% on BRD4 long isoform (24 h, 1 μM); 95% on BRD4 long isoform (24 h, 5 μM); −27% at BRD4 long isoform (48 h, 0.1 μM); 43% at BRD4 long isoform (48 h, 1 μM); 82% at BRD4 long isoform (48 h, 5 μM). Further, the “% Mean Degradation of BRD4” value at BRD4 short isoform (24 h, 0.1 μM) amounted to 21%; on BRD4 short isoform (24 h, 1 μM), 60%; at BRD4 short isoform (24 h, 5 μM), 95%; at BRD4 short isoform (48 h, 0.1 μM) it was 1%; at BRD4 short isoform (48 h, 1 μM) it was 44%; on BRD4 short isoform (48 h, 5 μM), 81%. For the same compound, the EC50 in assay [1] is 2490 nM.
Take `Cc1sc2c(c1C)C(c1ccc(Cl)cc1)=N[C@@H](CC(=O)NCCOCCOCCNC(=O)[C@@]1(C)CCCC[C@H]1C(=O)N1CCc3c(Cl)ccc(OCc4nnn(C)c4C)c3[C@H]1CN1CC3(CC3)CC1=O)c1nnc(C)n1-2` [Comparative Example 3, (1S,2R)-2-((S)-5-Chloro-8-((1,5-dimethyl-1H-1,2,3-triazol-4-yl)methoxy)-1-((6-oxo-5-azaspiro[2.4]heptan-5-yl)methyl)-1,2,3,4-tetrahydroisoguinoline-2-carbonyl)-N-(2-(2-(2-(2-((S)-4-(4-chlorophenyl)-2,3,9-trimethyl-6H-thieno[3,2-f][1,2,4]triazolo[4,3-a][1,4]diazepin-6-yl)acetamido)ethoxy)ethoxy)ethyl)-1-methylcyclohexane-1-carboxamide, reference compound]: the “% Mean Degradation of BRD4” value at BRD4 long isoform (24 h, 0.1 μM) was found to be 34%; on BRD4 long isoform (24 h, 1 μM), 45%; at BRD4 long isoform (24 h, 5 μM), 49%; at BRD4 long isoform (48 h, 0.1 μM), 13%; on BRD4 long isoform (48 h, 1 μM), 30%; on BRD4 long isoform (48 h, 5 μM) it was 20%. For the same compound, the “% Mean Degradation of BRD4” value is 5% on BRD4 short isoform (24 h, 0.1 μM); 31% on BRD4 short isoform (24 h, 1 μM); 18% at BRD4 short isoform (24 h, 5 μM); 23% on BRD4 short isoform (48 h, 0.1 μM); 32% on BRD4 short isoform (48 h, 1 μM); −4% at BRD4 short isoform (48 h, 5 μM). Also, the EC50 in assay [1] was determined as 68 nM.
